Experimental data as given in the kinase profiling compilation of Christmann-Franck et al. (2016).

Key:
Assay in all cases: split-luciferase competition binding
[1] = molecular target: AURKB (human) (UniProt Q96GD4); details: compound 10.0 µM
[2] = molecular target: PRKX (human) (UniProt P51817); details: compound 10.0 µM
[3] = tested on: PRKACA (mouse); details: compound 10.0 µM; accession and sequence are those of the human protein
[4] = molecular target: RPS6KA5 KD1 (human) (UniProt O75582); details: compound 10.0 µM
[5] = molecular target: SGK2 (human) (UniProt Q9HBY8); details: compound 10.0 µM
[6] = molecular target: RPS6KA6 KD1 (human) (UniProt Q9UK32); details: compound 10.0 µM
[7] = molecular target: AURKA (human) (UniProt O14965); details: compound 10.0 µM
[8] = molecular target: PRKCQ (human) (UniProt Q04759); details: compound 10.0 µM
[9] = molecular target: RPS6KA2 KD1 (human) (UniProt Q15349); details: compound 10.0 µM
[10] = molecular target: PRKACB (human) (UniProt P22694); details: compound 10.0 µM
[11] = molecular target: DMPK (human) (UniProt Q09013); details: compound 10.0 µM
[12] = molecular target: AKT2 (human) (UniProt P31751); details: compound 10.0 µM
[13] = molecular target: AKT1 (human) (UniProt P31749); details: compound 10.0 µM
[14] = molecular target: AURKC (human) (UniProt Q9UQB9); details: compound 10.0 µM
[15] = molecular target: RPS6KA1 KD1 (human) (UniProt Q15418); details: compound 10.0 µM
[16] = molecular target: PRKCH (human) (UniProt P24723); details: compound 10.0 µM
[17] = molecular target: PRKCI (human) (UniProt P41743); details: compound 10.0 µM
[18] = molecular target: PDPK1 (human) (UniProt O15530); details: compound 10.0 µM
[19] = molecular target: RPS6KA3 KD1 (human) (UniProt P51812); details: compound 10.0 µM
[20] = molecular target: PRKCE (human) (UniProt Q02156); details: compound 10.0 µM
[21] = molecular target: AKT3 (human) (UniProt Q9Y243); details: compound 10.0 µM
[22] = molecular target: PKN1 (human) (UniProt Q16512); details: compound 10.0 µM
[23] = molecular target: SGK3 (human) (UniProt Q96BR1); details: compound 10.0 µM
[24] = molecular target: PRKCD (human) (UniProt Q05655); details: compound 10.0 µM
[25] = molecular target: STK32B (human) (UniProt Q9NY57); details: compound 10.0 µM
[26] = molecular target: RPS6KA4 KD1 (human) (UniProt O75676); details: compound 10.0 µM
[27] = molecular target: PRKCG (human) (UniProt P05129); details: compound 10.0 µM

AKT1 (human), sequence (P31749 whole entry, looked up): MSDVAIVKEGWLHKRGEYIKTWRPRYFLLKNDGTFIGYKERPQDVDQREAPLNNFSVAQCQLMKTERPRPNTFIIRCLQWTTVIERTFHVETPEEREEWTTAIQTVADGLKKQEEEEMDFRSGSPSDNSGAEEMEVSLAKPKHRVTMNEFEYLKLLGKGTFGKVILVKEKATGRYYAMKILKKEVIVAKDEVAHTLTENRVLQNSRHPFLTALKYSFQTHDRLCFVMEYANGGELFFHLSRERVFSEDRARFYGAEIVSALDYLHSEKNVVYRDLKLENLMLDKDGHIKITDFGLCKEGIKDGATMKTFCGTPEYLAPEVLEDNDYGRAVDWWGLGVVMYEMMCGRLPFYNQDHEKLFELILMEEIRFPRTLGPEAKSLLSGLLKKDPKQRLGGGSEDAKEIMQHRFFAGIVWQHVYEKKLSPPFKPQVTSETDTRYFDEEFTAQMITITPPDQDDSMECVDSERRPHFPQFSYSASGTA
AURKA (human), sequence (O14965 whole entry, looked up): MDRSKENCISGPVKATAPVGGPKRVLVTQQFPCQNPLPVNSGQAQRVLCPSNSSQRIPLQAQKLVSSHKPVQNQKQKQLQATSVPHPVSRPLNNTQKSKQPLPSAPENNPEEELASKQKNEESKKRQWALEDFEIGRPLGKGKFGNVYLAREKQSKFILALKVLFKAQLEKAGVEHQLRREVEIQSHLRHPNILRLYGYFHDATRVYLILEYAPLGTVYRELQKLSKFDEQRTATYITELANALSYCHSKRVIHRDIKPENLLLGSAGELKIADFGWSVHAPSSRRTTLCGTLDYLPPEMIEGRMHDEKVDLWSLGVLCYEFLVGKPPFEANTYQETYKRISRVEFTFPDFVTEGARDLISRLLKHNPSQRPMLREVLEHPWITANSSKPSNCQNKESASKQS
RPS6KA1 KD1 (human), sequence (Q15418 whole entry, looked up): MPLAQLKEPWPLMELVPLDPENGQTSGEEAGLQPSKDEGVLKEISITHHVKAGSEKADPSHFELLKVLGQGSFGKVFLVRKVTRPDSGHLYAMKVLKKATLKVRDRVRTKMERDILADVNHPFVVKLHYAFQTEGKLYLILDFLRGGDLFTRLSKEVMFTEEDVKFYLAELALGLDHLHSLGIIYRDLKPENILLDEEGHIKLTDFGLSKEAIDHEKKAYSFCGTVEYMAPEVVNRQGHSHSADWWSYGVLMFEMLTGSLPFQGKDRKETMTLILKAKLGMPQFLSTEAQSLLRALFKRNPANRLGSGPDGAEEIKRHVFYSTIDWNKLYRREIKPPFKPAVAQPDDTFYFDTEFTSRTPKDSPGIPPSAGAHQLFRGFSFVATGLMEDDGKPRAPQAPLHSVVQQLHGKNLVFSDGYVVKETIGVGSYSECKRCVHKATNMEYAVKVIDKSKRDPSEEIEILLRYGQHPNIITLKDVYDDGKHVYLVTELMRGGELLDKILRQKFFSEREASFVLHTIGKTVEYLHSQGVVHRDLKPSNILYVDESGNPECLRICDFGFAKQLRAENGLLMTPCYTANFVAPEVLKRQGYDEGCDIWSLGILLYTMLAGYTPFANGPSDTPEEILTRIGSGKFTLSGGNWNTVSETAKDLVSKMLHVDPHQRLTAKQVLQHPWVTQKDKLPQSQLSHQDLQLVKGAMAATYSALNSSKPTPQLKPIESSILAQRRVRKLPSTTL
PRKCQ (human), sequence (Q04759 whole entry, looked up): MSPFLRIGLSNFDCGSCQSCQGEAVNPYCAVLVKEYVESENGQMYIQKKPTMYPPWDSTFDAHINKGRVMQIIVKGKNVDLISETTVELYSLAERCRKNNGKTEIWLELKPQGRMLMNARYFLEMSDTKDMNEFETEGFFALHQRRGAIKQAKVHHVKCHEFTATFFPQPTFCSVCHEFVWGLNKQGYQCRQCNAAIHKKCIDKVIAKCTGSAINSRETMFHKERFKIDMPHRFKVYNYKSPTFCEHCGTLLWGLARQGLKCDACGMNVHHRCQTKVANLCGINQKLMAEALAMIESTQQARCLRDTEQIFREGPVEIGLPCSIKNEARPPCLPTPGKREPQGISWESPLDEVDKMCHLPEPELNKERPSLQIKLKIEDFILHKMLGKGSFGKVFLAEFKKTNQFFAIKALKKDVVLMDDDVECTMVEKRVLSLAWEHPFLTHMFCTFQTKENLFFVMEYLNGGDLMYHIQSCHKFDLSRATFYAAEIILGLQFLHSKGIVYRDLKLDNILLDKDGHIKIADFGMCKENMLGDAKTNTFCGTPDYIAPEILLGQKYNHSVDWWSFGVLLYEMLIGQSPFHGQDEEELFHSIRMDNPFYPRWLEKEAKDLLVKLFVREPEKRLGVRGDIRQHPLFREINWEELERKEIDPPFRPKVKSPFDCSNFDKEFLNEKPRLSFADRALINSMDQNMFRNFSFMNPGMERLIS
DMPK (human), sequence (Q09013 whole entry, looked up): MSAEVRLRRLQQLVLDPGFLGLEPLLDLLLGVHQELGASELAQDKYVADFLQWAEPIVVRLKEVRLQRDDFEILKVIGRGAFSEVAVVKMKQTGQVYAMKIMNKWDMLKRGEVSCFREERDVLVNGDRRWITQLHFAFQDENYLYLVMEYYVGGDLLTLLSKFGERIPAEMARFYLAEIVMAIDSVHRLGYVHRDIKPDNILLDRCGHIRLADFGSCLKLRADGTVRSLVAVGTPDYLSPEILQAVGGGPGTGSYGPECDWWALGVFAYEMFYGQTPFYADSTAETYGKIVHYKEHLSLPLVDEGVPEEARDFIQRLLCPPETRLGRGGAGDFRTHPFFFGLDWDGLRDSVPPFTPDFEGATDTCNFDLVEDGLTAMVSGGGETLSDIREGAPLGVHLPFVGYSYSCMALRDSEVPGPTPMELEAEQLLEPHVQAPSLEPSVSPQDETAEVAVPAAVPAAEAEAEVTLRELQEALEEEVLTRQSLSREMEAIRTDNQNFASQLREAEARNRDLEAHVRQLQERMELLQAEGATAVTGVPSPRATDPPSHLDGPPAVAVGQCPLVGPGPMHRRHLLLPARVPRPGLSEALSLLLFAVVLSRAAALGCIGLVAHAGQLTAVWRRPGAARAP
PRKCI (human), sequence (P41743 whole entry, looked up): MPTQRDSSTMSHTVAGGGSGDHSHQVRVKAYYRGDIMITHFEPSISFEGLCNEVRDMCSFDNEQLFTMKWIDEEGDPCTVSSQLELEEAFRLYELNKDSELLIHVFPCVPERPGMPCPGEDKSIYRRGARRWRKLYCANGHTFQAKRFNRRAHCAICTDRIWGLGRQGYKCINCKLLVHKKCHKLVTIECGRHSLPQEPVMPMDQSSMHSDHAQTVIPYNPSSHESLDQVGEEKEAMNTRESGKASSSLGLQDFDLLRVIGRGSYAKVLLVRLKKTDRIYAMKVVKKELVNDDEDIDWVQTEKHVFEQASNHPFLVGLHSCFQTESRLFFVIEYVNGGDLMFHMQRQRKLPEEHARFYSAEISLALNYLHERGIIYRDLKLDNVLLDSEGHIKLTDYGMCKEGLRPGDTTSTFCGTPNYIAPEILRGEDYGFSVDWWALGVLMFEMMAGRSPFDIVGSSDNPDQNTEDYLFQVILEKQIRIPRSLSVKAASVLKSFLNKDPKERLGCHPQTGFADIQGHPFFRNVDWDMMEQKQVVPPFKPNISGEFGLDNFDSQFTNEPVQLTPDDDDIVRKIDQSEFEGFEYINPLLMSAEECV
PKN1 (human), sequence (Q16512 whole entry, looked up): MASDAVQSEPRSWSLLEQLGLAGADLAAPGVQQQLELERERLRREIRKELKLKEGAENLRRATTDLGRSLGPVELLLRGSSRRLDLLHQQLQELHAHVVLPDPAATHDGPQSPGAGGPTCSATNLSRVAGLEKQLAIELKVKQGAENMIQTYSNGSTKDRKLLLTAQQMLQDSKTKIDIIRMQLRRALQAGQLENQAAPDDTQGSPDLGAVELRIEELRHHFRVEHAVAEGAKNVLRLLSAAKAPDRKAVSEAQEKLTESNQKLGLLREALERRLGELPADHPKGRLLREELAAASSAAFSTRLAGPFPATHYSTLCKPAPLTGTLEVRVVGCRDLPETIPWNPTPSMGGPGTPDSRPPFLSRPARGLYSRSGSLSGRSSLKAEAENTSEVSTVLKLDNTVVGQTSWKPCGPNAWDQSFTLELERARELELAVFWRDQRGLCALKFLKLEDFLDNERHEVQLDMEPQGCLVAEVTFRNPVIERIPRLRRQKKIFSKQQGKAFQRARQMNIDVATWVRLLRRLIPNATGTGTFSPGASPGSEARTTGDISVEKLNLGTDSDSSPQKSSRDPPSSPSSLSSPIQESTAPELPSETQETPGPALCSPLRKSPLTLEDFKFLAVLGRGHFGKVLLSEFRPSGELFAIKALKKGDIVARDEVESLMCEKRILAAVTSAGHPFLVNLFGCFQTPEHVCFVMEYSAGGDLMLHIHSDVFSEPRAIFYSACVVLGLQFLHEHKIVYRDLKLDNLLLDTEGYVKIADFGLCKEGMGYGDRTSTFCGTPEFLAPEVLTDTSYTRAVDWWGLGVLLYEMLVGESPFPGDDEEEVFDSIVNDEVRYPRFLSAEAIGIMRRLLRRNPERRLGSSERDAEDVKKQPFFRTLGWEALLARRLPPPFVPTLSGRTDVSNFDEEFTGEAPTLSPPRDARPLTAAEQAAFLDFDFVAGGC
AURKB (human), sequence (Q96GD4 whole entry, looked up): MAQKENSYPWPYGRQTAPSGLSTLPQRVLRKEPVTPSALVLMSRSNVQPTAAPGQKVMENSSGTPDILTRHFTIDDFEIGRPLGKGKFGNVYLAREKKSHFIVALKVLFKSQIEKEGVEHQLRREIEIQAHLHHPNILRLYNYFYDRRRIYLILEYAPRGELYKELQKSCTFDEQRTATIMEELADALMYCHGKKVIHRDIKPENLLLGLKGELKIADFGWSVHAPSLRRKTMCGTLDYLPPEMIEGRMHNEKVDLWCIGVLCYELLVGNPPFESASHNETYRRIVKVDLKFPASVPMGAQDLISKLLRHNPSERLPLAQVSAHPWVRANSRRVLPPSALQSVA

SMILES	inhibition [1] [%]	inhibition [2] [%]	inhibition [3] [%]	inhibition [4] [%]	inhibition [5] [%]	inhibition [6] [%]	inhibition [7] [%]	inhibition [8] [%]	inhibition [9] [%]	inhibition [10] [%]	inhibition [11] [%]	inhibition [12] [%]	inhibition [13] [%]	inhibition [14] [%]	inhibition [15] [%]	inhibition [16] [%]	inhibition [17] [%]	inhibition [18] [%]	inhibition [19] [%]	inhibition [20] [%]	other results
CC[C@@H](CO)Nc1nc(NCc2ccccc2)c2ncn(C(C)C)c2n1	0	0	0	0	0	0	0	0	0	0	0	0	0	0	20	0	0	0	0	0	inhibition [21]: 0%; inhibition [22]: 0%; inhibition [23]: 0%; inhibition [24]: 2%; inhibition [25]: 0%; inhibition [26]: 0%; inhibition [27]: 0%
CCN(CC)CCCCN1c2ccccc2Oc2ccc(Cl)cc21	8	7	0	0	0	0	0	4	7	0	7	0	0	16	0	0	2	0	0	3	inhibition [21]: 0%; inhibition [22]: 6%; inhibition [23]: 0%; inhibition [24]: 0%; inhibition [25]: 0%; inhibition [26]: 0%; inhibition [27]: 0%
N#C/C(=C\c1ccc(O)c(O)c1)C(N)=S	0	0	4	0	0	0	1	0	0	0	0	0	0	0	0	0	0	0	0	0	inhibition [21]: 0%; inhibition [22]: 5%; inhibition [23]: 0%; inhibition [24]: 0%; inhibition [25]: 1%; inhibition [26]: 0%; inhibition [27]: 0%
O=C1NC(=O)c2c1c1c3ccccc3n3c1c1c2c2ccccc2n1C1CCC3O1	60	79	65	73	87	80	12	82	81	71	37	56	78	45	81	78	28	29	77	59	inhibition [21]: 45%; inhibition [22]: 10%; inhibition [23]: 85%; inhibition [24]: 58%; inhibition [25]: 12%; inhibition [26]: 77%; inhibition [27]: 45%
O=C1NC(=O)c2c1c1c3ccccc3[nH]c1c1[nH]c3ccccc3c21	50	62	27	47	70	36	1	45	42	20	30	0	22	35	51	65	0	22	23	25	inhibition [21]: 0%; inhibition [22]: 0%; inhibition [23]: 81%; inhibition [24]: 17%; inhibition [25]: 9%; inhibition [26]: 55%; inhibition [27]: 7%
NC(=O)c1ccc(-c2nc(-c3ccccn3)c(-c3ccc4c(c3)OCCO4)[nH]2)cc1	0	0	0	2	3	5	0	1	0	3	7	0	2	2	0	0	1	0	0	1	inhibition [21]: 0%; inhibition [22]: 0%; inhibition [23]: 1%; inhibition [24]: 0%; inhibition [25]: 0%; inhibition [26]: 0%; inhibition [27]: 0%
N#CC(=C(\N)Sc1ccccc1N)/C(C#N)=C(/N)Sc1ccccc1N	0	0	0	0	0	0	0	0	0	0	0	0	0	0	0	0	3	0	0	0	inhibition [21]: 0%; inhibition [22]: 0%; inhibition [23]: 0%; inhibition [24]: 0%; inhibition [25]: 0%; inhibition [26]: 0%; inhibition [27]: 0%
CC(=O)c1c(O)c(C)c(O)c(Cc2c(O)c3c(c(C(=O)/C=C/c4ccccc4)c2O)OC(C)(C)C=C3)c1O	10	16	16	0	20	13	5	9	9	22	23	0	24	8	0	0	0	0	4	14	inhibition [21]: 0%; inhibition [22]: 0%; inhibition [23]: 0%; inhibition [24]: 6%; inhibition [25]: 23%; inhibition [26]: 0%; inhibition [27]: 26%
O=c1cc(N2CCOCC2)oc2c(-c3ccccc3)cccc12	0	0	0	4	0	0	0	0	0	0	0	0	0	0	16	0	0	0	0	0	inhibition [21]: 0%; inhibition [22]: 0%; inhibition [23]: 0%; inhibition [24]: 0%; inhibition [25]: 0%; inhibition [26]: 0%; inhibition [27]: 0%
